Assays:
Assay type in all cases: cell-based, human
AsPC-1 (K-Ras G12D) [1] = assay: Potency assay: pERK; details: Homo sapiens, ASPC1, read-out: pERK EC50
Protocol: The purpose of this assay is to measure the ability of test compounds to inhibit K-Ras in cells. […] This procedure measures a decrease in cellular pERK in response to test compounds. The procedure described below in NCI-H358 cells is applicable to K-Ras G12C.
NCI-H358 cells were grown and maintained using media and procedures recommended by the ATCC. On the day prior to compound addition, cells were plated in 384-well cell culture plates (40 μl/well) and grown overnight in a 37° C., 5% CO2 incubator. Test compounds were prepared in 10, 3-fold dilutions in DMSO, with a high concentration of 10 mM. On the day of assay, 40 nL of test compound was added to each well of cell culture plate using an Echo550 liquid handler (LabCyte®). Concentrations of test compound were tested in duplicate. After compound addition, cells were incubated 4 hours at 37° C., 5% CO2. Following incubation, culture medium was removed and cells were washed once with phosphate buffered saline.
In some experiments, cellular pERK level was determined using the AlphaLISA SureFire Ultra p-ERK1/2 Assay Kit (PerkinElmer). Cells were lysed in 25 μL lysis buffer, with shaking at 600 RPM at room temperature. Lysate (10 μL) was transferred to a 384-well Opti-plate (PerkinElmer) and 5 μL acceptor mix was added. After a 2-hour incubation in the dark, 5 μL donor mix was added, plate was sealed, and incubated 2 hours at room temperature. Signal was read on an Envision plate reader (PerkinElmer) using standard AlphaLISA settings. Analysis of raw data was carried out in Excel (Microsoft) and Prism (GraphPad). Signal was plotted vs. the decadal logarithm of compound concentration, and IC50 was determined by fitting a 4-parameter sigmoidal concentration response model.
In other experiments, cellular pERK was determined by In-Cell Western. Following compound treatment, cells were washed twice with 200 μL tris buffered saline (TBS) and fixed for 15 minutes with 150 μL 4% paraformaldehyde in TBS. Fixed cells were washed 4 times for 5 minutes with TBS containing 0.1% Triton X-100 (TBST) and then blocked with 100 μL Odyssey blocking buffer (LI-COR) for 60 minutes at room temperature. Primary antibody (PERK, CST-4370, Cell Signaling Technology) was diluted 1:200 in blocking buffer, and 50 μL was added to each well and incubated overnight at 4° C. Cells were washed 4 times for 5 minutes with TBST. Secondary antibody (IR-800CW rabbit, LI-COR, diluted 1:800) and DNA stain DRAQ5 (LI-COR, diluted 1:2000) were added and incubated 1-2 hours at room temperature. Cells were washed 4 times for 5 minutes with TBST. Plates were scanned on a Li—COR Odyssey CLx Imager. Analysis of raw data was carried out in Excel (Microsoft) and Prism (GraphPad). Signal was plotted vs. the decadal logarithm of compound concentration, and IC50 was determined by fitting a 4-parameter sigmoidal concentration response model.

NCI-H358 (K-Ras G12C) = assay: CellTiter-Glo cell viability assay, H358; details: Homo sapiens, NCI-H358, 120 h, read-out: H358 Cell Viability IC50, K-Ras G12C, 5-day treatment
Protocol: (§1) Note—The following protocol describes a procedure for monitoring cell viability of K-Ras mutant cancer cell lines in response to a compound of the invention. Other RAS isoforms may be employed, though the number of cells to be seeded will vary based on cell line used.
(§2) Test compounds (132.5 nL) were directly dispensed into the assay plates containing cells. […] On day 5, assay plates and their contents were equilibrated to room temperature for approximately 30 minutes. […] Luminescence was measured using the PerkinElmer Enspire. Data were normalized by the following: (Sample signal/Avg. DMSO)*100. The data were fit using a four-parameter logistic fit.

AsPC-1 (K-Ras G12D) [2] = assay: CellTiter-Glo cell viability assay, AsPC-1; details: Homo sapiens, ASPC1, 120 h, read-out: AsPC-1 Cell Viability IC50
Protocol: as §1, §2

Row | SMILES | EC50 (AsPC-1 (K-Ras G12D) [1]) | IC50 (NCI-H358 (K-Ras G12C)) | IC50 (AsPC-1 (K-Ras G12D) [2])
1 | CCn1c(-c2cnccc2COC)c2c3cc(ccc31)-c1cc(O)cc(c1)C[C@H](NC(=O)[C@H](C(C)C)N(C)C(=O)CN(C)C(=O)[C@H]1CN1)C(=O)N1CCC[C@H](N1)C(=O)OCC(C)(C)C2 [Example 7, (2R)—N-(2-(((2S)-1-(((6^3S,4S)-1^1-ethyl-25-hydroxy-1^2-(4-(methoxymethyl)pyridin-3-yl)-10,10-dimethyl-5,7-dioxo-6^1,6^2,6^3,6^4,6^5,6^6-hexahydro-1^1H-8-oxa-1 (5,3)-indola-6 (1,3)-pyridazina-2 (1,3)-benzenacycloundecaphane-4-yl)amino)-3-methyl-1-oxobutan-2-yl) (methyl)amino)-2-oxoethyl)-N-methylaziridine-2-carboxamide] | < 5 µM | 10 to 100 nM | 100 to 1000 nM
2 | CCn1c(-c2cnccc2COC)c2c3cc(ccc31)-c1cc(O)cc(c1)C[C@H](NC(=O)[C@H](C(C)C)N(C)C(=O)CN(C)C(=O)C1CN1)C(=O)N1CCC[C@H](N1)C(=O)OCC(C)(C)C2 (some centres unmarked) [Example 33] | < 5 µM | 10 to 100 nM | –
3 | CCn1c(-c2cccnc2[C@H](C)OC)c2c3cc(ccc31)-c1cc(O)cc(c1)C[C@H](NC(=O)[C@H](C(C)C)N(C)C(=O)[C@@H](C)N(C)C(=O)[C@H]1CN1)C(=O)N1CCC[C@H](N1)C(=O)OCC(C)(C)C2 [Example 114] | < 5 µM | – | 1000 to 10000 nM
4 | CCn1c(-c2cccnc2[C@H](C)OC)c2c3cc(ccc31)-c1cc(O)cc(c1)C[C@H](NC(=O)[C@H](C(C)C)N(C)C(=O)CN(C)C(=O)[C@H]1N[C@H]1C1CC1)C(=O)N1CCC[C@H](N1)C(=O)OCC(C)(C)C2 [Example 134] | < 5 µM | – | 1000 to 10000 nM
5 | CCn1c(-c2cccnc2[C@H](C)OC)c2c3cc(ccc31)-c1cc(O)cc(c1)C[C@H](NC(=O)[C@H](C(C)C)N(C)C(=O)CNC(=O)[C@H]1CN1)C(=O)N1CCC[C@H](N1)C(=O)OCC(C)(C)C2 [Example 140] | < 5 µM | – | 1000 to 10000 nM
6 | CCn1c(-c2cccnc2[C@H](C)OC)c2c3cc(ccc31)-c1cc(O)cc(c1)C[C@H](NC(=O)[C@H](C(C)C)N(C)C(=O)CNC(=O)[C@@H]1CN1)C(=O)N1CCC[C@H](N1)C(=O)OCC(C)(C)C2 [Example 147] | < 5 µM | – | 1000 to 10000 nM
7 | CCn1c(-c2cccnc2[C@H](C)OC)c2c3cc(ccc31)-c1cc(O)cc(c1)C[C@H](NC(=O)[C@H](C(C)C)N(C)C(=O)[C@H]1CCCN1C(=O)[C@@H]1CN1)C(=O)N1CCC[C@H](N1)C(=O)OCC(C)(C)C2 [Example 151] | < 5 µM | – | 1000 to 10000 nM
8 | CCn1c(-c2cccnc2[C@H](C)OC)c2c3cc(ccc31)-c1cc(O)cc(c1)C[C@H](NC(=O)[C@H](C(C)C)N(C)C(=O)[C@H]1CCCN1C(=O)[C@H]1CN1)C(=O)N1CCC[C@H](N1)C(=O)OCC(C)(C)C2 [Example 152] | < 5 µM | – | 1000 to 10000 nM
9 | CCn1c(-c2cccnc2[C@H](C)OC)c2c3cc(ccc31)-c1cc(O)cc(c1)C[C@H](NC(=O)[C@H](C(C)C)N(C)C(=O)[C@H]1CC[C@@H](C)N1C(=O)[C@@H]1CN1)C(=O)N1CCC[C@H](N1)C(=O)OCC(C)(C)C2 [Example 153] | < 5 µM | – | 1000 to 10000 nM
10 | CCn1c(-c2cccnc2[C@H](C)OC)c2c3cc(ccc31)-c1cc(O)cc(c1)C[C@H](NC(=O)[C@H](C(C)C)N(C)C(=O)[C@H]1CC[C@@H](C)N1C(=O)[C@H]1CN1)C(=O)N1CCC[C@H](N1)C(=O)OCC(C)(C)C2 [Example 154] | < 5 µM | – | 1000 to 10000 nM
11 | CCn1c(-c2cccnc2[C@H](C)OC)c2c3cc(ccc31)-c1cc(O)cc(c1)C[C@H](NC(=O)[C@H](C(C)C)N(C)C(=O)CN(C)C(=O)[C@H]1CN1CCO)C(=O)N1CCC[C@H](N1)C(=O)OCC(C)(C)C2 (some centres unmarked) [Example 161] | < 5 µM | – | 1000 to 10000 nM
12 | CCn1c(-c2cccnc2[C@H](C)OC)c2c3cc(ccc31)-c1cc(O)cc(c1)C[C@H](NC(=O)[C@H](C(C)C)N(C)C(=O)CN(C)C(=O)[C@@H]1CN1CCO)C(=O)N1CCC[C@H](N1)C(=O)OCC(C)(C)C2 (some centres unmarked) [Example 162] | < 5 µM | – | 1000 to 10000 nM
13 | CCn1c(-c2cccnc2[C@H](C)OC)c2c3cc(ccc31)-c1cc(O)cc(c1)C[C@H](NC(=O)[C@H](C(C)C)N(C)C(=O)CN(C)C(=O)[C@H]1CN1CCCN1CCCC1=O)C(=O)N1CCC[C@H](N1)C(=O)OCC(C)(C)C2 (stereo partly drawn) [Example 268, (2R)—N-(2-(((2S)-1-(((6^3S,4S)-1^1-ethyl-25-hydroxy-1^2-(2-((S)-1-methoxyethyl)pyridin-3-yl)-10,10-dimethyl-5,7-dioxo-6^1,6^2,6^3,6^4,6^5,6^6-hexahydro-1^1H-8-oxa-1 (5,3)-indola-6 (1,3)-pyridazina-2 (1,3)-benzenacycloundecaphane-4-yl)amino)-3-methyl-1-oxobutan-2-yl) (methyl)amino)-2-oxoethyl)-N-methyl-1-(3-(2-oxopyrrolidin-1-yl)propyl) aziridine-2-carboxamide] | < 5 µM | – | 1000 to 10000 nM
14 | CCn1c(-c2cccnc2[C@H](C)OC)c2c3cc(ccc31)-c1cc(O)cc(c1)C[C@H](NC(=O)[C@H](C(C)C)N(C)C(=O)CN(C)C(=O)[C@@H]1CN1CC(=O)N(C)C)C(=O)N1CCC[C@H](N1)C(=O)OCC(C)(C)C2 (some centres unmarked) [Example 271] | < 5 µM | – | > 10000 nM
15 | CCn1c(-c2cccnc2[C@H](C)OC)c2c3cc(ccc31)-c1cc(O)cc(c1)C[C@H](NC(=O)[C@H](C(C)C)N(C)C(=O)CN(C)C(=O)[C@H]1CN1CCCN1CCOC1=O)C(=O)N1CCC[C@H](N1)C(=O)OCC(C)(C)C2 (some centres unmarked) [Example 272] | < 5 µM | – | 1000 to 10000 nM
16 | CCn1c(-c2cccnc2[C@H](C)OC)c2c3cc(ccc31)-c1cc(O)cc(c1)C[C@H](NC(=O)[C@H](C(C)C)N(C)C(=O)CN(C)C(=O)[C@H]1CN1C1COC1)C(=O)N1CCC[C@H](N1)C(=O)OCC(C)(C)C2 (some centres unmarked) [Example 275] | < 5 µM | – | 1000 to 10000 nM
17 | CCn1c(-c2cccnc2[C@H](C)OC)c2c3cc(ccc31)-c1cc(O)cc(c1)C[C@H](NC(=O)[C@H](C(C)C)N(C)C(=O)CN(C)C(=O)[C@@H]1CN1CC1COC1)C(=O)N1CCC[C@H](N1)C(=O)OCC(C)(C)C2 (some centres unmarked) [Example 278] | < 5 µM | – | 1000 to 10000 nM
18 | CCn1c(-c2cccnc2[C@H](C)OC)c2c3cc(ccc31)-c1cc(O)cc(c1)C[C@H](NC(=O)[C@H](C(C)C)N(C)C(=O)CN(C)C(=O)[C@@H]1N[C@@H]1C1COC1)C(=O)N1CCC[C@H](N1)C(=O)OCC(C)(C)C2 [Example 281] | < 5 µM | – | 100 to 1000 nM
19 | CCn1c(-c2cccnc2[C@H](C)OC)c2c3cc(ccc31)-c1cc(O)cc(c1)C[C@H](NC(=O)[C@H](C(C)C)N(C)C(=O)CN(C)C(=O)[C@H]1N[C@H]1C1COC1)C(=O)N1CCC[C@H](N1)C(=O)OCC(C)(C)C2 [Example 282] | < 5 µM | – | 1000 to 10000 nM
20 | CCn1c(-c2cccnc2[C@H](C)OC)c2c3cc(ccc31)-c1cc(O)cc(c1)C[C@H](NC(=O)[C@H](C(C)C)N(C)C(=O)CN(C)C(=O)[C@H]1N[C@@H]1C1COC1)C(=O)N1CCC[C@H](N1)C(=O)OCC(C)(C)C2 [Example 284] | < 5 µM | – | 1000 to 10000 nM
